# Entries after “also recorded” stand apart in the source; their conditions may differ.
# Key:
# [1] = biological target: DRD2L (Homo sapiens, UniProt P14416); experiment: Arrestin recruitment to DRD2L, Gaddum/Schild EC50 shift analysis; assay type: cell-based
# [2] = biological target: DRD5 (Homo sapiens, UniProt P21918); experiment: GPCR β-arrestin recruitment reporter assay, DRD5; assay type: cell-based
# [3] = biological target: T1, GPR132 (Homo sapiens, UniProt Q9UNW8); experiment: GPCR arrestin recruitment reporter assay, GPR132; assay type: cell-based; details: for activity at GPR132: arrestin recruitment reporter assay
# T1 construct: expressed in transfected cells
# T1 sequence (Q9UNW8 1-380): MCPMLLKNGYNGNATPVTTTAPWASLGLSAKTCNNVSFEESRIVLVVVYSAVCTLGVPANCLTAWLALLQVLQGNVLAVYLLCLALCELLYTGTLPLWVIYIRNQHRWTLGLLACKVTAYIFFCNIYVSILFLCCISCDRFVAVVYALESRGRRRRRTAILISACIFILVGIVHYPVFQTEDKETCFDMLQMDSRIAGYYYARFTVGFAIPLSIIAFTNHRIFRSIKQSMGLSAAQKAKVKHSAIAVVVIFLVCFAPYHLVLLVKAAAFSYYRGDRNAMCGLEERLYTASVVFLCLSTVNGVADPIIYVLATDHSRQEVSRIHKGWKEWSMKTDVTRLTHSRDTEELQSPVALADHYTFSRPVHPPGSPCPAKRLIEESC
# Experimental: (§1) Dual targeting of DRD2/3 and GPR132/91 represents a novel strategy for anti-cancer efficacy without toxicity. […] The safety profile of ONC213 confirmed in mouse MTD study with NOAEL 75 mg/kg three times that of ONC212 (25 mg/kg).
# (§2) ONC201 dihydrochloride was obtained from Oncoceutics.
# [4] = test system: NCI60 cancer cell line panel; experiment: NCI60 cancer cell line panel; assay type: cell-based; details: NCI60 panel (FIG. 4)
# [5] = test system: HCT116 cells; experiment: Anticancer efficacy in HCT116 cells; assay type: cell-based, human; details: HCT116 cells
# [6] = test system: DRD2 (short and long isoforms); experiment: GPCR β-arrestin recruitment reporter assay, DRD2; assay type: cell-based; details: for activity at DRD2: arrestin recruitment reporter assay
# [7] = biological target: T2, CXCR7 (Homo sapiens, UniProt P25106); experiment: GPCR arrestin recruitment reporter assay, CXCR7; assay type: cell-based
# T2 construct: expressed in transfected cells
# T2 sequence (P25106 whole entry): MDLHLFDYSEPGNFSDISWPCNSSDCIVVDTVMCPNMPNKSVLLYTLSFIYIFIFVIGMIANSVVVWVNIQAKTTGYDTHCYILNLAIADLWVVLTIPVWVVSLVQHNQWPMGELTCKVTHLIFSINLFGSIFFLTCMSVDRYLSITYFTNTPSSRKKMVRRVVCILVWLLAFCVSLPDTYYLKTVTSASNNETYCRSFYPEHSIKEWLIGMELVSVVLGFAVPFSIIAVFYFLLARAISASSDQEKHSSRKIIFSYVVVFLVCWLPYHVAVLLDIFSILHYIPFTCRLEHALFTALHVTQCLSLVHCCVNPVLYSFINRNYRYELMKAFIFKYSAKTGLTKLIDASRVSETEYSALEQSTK
# Description: as §2
# [8] = test system: GPCRs; experiment: In vitro profiling of GPCR activity (arrestin recruitment panel)
# [9] = test system: Ewing's sarcoma cell lines; experiment: Ewing's sarcoma cell lines; assay type: cell-based; details: 16 Ewing's sarcoma cell lines (FIG. 6, 7)
# [10] = test system: patient-derived glioma stem cell (GSC) populations; experiment: Patient-derived glioma stem cell assays (CellTiter-Glo, limiting dilution, sphere formation); assay type: cell-based, human
# Description: In silico analysis of a glioma patient database led to investigation of DRD2 signaling in glioma; alteration of DRD2 mRNA expression was directly connected to global gene expression change in the glioma patient database.
# [11] = test system: Bone cancer; experiment: Bone cancer responsiveness; assay type: cell-based; details: FIG. 5
# [12] = test system: HFF (Normal Fibroblast); experiment: Cell viability of HFF normal fibroblasts; details: therapeutic doses, Table 5
# [13] = test system: several cell lines; experiment: In vitro potency in several cell lines (Table 5)
# [14] = test system: recurrent high grade glioma; experiment: Progression-free survival of patients with recurrent high grade glioma; assay type: in vivo, human; details: H3 K27M (n=15) vs wild-type or unknown H3 status (n=35)
# Description: In one study of thirty-nine pediatric diffuse intrinsic pontine gliomas, DIPG patients carrying the K27M-H3.3 mutation (n=30) have worse overall survival compared to patients wild-type (n=9) for this histone (Khoung-Quang et al., Acta Neuropathol (2012) 124:439). […] The cohort is divided into two groups: one with known H3 K27M mutation (n=15) and the other with wild-type or unknown H3 status (n=35).
# [15] = test system: temozolomide-resistant high-grade glioma xenografts; experiment: High-grade glioma xenografts in mice; assay type: in vivo
# [16] = test system: GDSC collection of cell lines; experiment: Genomic of Drug Sensitivity in Cancer (GDSC) cell line collection; assay type: cell-based, human; details: cell viability at 72 hours post-treatment
# Description: FIG. 2. Tumor type sensitivity of the Genomic of Drug Sensitivity in Cancer program (GDSC) cell line collection. […] Numbers above the bar indicates indicate the number of cell lines per tumor type.
# High expression of DRD2 occurred in primary, rather than secondary, glioblastoma and was associated with a poor prognosis. […] Resistance could be recapitulated with overexpression of the mutant DRD5 gene or, to a lesser extent, with the wild-type gene.
# [17] = biological target: DRD4 (Homo sapiens, UniProt P21917); details: arrestin recruitment reporter assay
# DRD4, sequence (P21917 whole entry): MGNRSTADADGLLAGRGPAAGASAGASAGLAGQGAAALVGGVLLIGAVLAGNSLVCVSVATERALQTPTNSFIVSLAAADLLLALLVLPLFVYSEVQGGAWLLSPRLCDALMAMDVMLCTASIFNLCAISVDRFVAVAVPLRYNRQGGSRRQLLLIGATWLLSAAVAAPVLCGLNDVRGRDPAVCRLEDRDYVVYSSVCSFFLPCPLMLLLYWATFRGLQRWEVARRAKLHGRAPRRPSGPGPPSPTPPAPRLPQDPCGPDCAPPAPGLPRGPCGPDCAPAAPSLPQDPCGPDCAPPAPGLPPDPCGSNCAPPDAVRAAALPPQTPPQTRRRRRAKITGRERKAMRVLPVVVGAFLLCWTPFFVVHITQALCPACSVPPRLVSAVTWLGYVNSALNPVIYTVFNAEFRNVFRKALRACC
# [18] = test system: kinome
# [19] = biological target: DRD2 (Homo sapiens, UniProt P14416); details: relative to antipsychotics
# DRD2, sequence (P14416 whole entry): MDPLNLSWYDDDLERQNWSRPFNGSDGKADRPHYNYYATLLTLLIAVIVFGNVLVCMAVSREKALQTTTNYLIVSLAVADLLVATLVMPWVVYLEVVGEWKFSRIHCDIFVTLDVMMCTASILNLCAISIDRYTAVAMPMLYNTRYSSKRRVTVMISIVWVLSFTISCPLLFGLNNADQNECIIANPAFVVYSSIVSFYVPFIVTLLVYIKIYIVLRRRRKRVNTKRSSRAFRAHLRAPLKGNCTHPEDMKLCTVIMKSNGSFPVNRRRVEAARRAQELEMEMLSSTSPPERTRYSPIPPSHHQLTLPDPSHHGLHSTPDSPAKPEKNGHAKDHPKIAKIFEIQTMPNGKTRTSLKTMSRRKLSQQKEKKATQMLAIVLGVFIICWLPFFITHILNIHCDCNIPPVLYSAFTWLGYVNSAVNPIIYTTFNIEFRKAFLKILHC
# [20] = test system: MV411 AML cells; experiment: MV411 AML xenograft model; details: 50 mg/kg, oral weekly administration (ONC201 at similar doses)
# [21] = test system: tumor cells (HCT116, MDA-MB-231, U87); experiment: Cell viability of tumor cells after 72 hours; details: Homo sapiens, read-out: viability of tumor cells
# [22] = test system: H3.3 K27M mutant diffuse intrinsic pontine glioma (DIPG); experiment: Treatment of girls with H3.3 K27M mutant DIPG; details: for symptoms / radiographic evaluation of tumor: child
# [23] = Phase II recurrent glioblastoma trial (NCT02525692); details: human, in vivo, 625 mg
# [24] = test system: recurrent glioblastoma; experiment: as above
# [25] = biological target: DRD3 (Homo sapiens, UniProt P35462); experiment: GPCR β-arrestin recruitment reporter assay, DRD3; assay type: cell-based
# DRD3, sequence (P35462 whole entry): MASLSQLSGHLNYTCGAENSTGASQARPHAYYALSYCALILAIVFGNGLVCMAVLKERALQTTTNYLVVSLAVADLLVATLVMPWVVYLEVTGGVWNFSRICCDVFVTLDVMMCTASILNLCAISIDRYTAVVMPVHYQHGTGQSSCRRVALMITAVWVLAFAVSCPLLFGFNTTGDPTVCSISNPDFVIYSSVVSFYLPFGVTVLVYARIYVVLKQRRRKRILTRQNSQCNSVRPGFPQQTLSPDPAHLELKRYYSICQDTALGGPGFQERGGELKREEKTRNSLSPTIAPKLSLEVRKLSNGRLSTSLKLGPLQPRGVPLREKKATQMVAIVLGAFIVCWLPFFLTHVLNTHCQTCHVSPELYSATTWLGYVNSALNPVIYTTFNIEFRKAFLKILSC
# [26] = biological target: T3, GPR91 (Homo sapiens, UniProt Q9BXA5); experiment: GPCR arrestin recruitment reporter assay, GPR91; assay type: cell-based
# T3 construct: expressed in transfected cells
# T3 sequence (Q9BXA5 whole entry): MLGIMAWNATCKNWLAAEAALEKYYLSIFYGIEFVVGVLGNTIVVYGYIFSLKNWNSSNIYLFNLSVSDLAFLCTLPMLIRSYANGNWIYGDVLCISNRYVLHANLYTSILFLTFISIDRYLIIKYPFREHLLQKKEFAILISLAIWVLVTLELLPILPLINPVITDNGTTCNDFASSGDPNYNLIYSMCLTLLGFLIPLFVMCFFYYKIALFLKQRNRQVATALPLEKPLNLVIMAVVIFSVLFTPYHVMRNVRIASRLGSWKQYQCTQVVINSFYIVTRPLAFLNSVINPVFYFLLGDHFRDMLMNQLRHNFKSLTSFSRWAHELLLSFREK
# Experimental: as §1, §2
# [27] = 17 patients, 625 mg every three weeks
# DRD5, sequence (P21918 whole entry): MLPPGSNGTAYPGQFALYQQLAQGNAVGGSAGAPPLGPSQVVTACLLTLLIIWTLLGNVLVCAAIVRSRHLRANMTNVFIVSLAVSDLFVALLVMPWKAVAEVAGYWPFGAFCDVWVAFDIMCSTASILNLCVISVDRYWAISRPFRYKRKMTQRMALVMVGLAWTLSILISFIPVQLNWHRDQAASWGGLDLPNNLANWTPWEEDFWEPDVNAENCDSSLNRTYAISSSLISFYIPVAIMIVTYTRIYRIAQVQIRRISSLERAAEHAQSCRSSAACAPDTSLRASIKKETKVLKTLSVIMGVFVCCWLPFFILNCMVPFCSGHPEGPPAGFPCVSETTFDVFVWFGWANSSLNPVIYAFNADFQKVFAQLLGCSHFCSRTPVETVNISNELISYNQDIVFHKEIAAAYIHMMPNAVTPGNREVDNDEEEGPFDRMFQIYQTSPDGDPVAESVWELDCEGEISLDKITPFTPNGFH
# DRD2L, sequence (P14416 whole entry): as the sequence (P14416 whole entry) above
compound,measurement,setting,value
TIC-10,inhibition of DRD2L,[1],did not inhibit
O=C1C2=C(CCN(CC(O)c3ccccc3)C2)N2CCN=C2N1Cc1ccc(C(F)(F)F)cc1 (centres unmarked) [ONC237],activity at DRD5,[2],antagonist
same,activity at GPR132,[3],agonist
O=C1C2=C(CCN(Cc3ccccc3)C2)N2CCN=C2N1Cc1cccs1 [ONC203],anti-cancer efficacy,[4],inactive negative control
O=C1C2=C(CCN(Cc3ccsc3)C2)N2CCN=C2N1Cc1ccc(C(F)(F)F)cc1 [ONC236],IC50,[5],234 nM
same,IC50,"[5]; Homo sapiens, HCT-116",88 nM
same,activity at GPR132,[3],highly selective GPR132 agonist
O=C1C2=C(CCN(Cc3ccc(Cl)c(Cl)c3)C2)N2CCN=C2N1Cc1ccc(C(F)(F)F)cc1 [ONC234],activity at DRD2,[6],antagonist activity
same,activity at DRD5,[2],antagonist activity
same,activity at CXCR7,[7]; arrestin recruitment reporter assay,agonist activity
same,GPCR profile,[8],broad spectrum and potent GPCR targeting small molecule
O=C1C2=C(CCN(Cc3ccccc3)C2)N2CCN=C2N1Cc1ccc(F)cc1F [ONC206],activity at DRD2,[6],selective DRD2 antagonism
same,anti-cancer efficacy,[4],demonstrated anti-cancer efficacy across various tumor types
same,anti-cancer efficacy,[9],most ONC206 responsive bone cancer subtype; also recorded: nanomolar range in 14 out of 16 Ewing's sarcoma cell lines
same,effect on glioma stem cells,"[10]; CellTiter-Glo cell viability, compared to differentiated glioma cells",potently inhibits; also recorded: preferentially eliminated GSCs
same,tumor sphere formation,[10]; in vitro limiting dilution assay and sphere formation analysis,prevented tumor sphere formation and tumor growth
same,responsiveness,[11],more responsive to ONC206 than ONC201
same,in vitro toxicity to normal cells,[12],no in vitro toxicity to normal cells at therapeutic doses
same,improvement in in vitro potency compared to ONC201,[13],up to 20 fold
"Cc1ccccc1CN1C2=NCCN2C(=O)C2=C1CCN(Cc1ccccc1)C2 [TIC-10, reference compound]",activity at CXCR7,"[7]; statement in the description, no method given",CXCR7 agonist
"Cc1ccccc1CN1C(=O)C2=C(CCN(Cc3ccccc3)C2)N2CCN=C12 [ONC201, 7-benzyl-4-(2-methylbenzyl)-1,2,6,7,8,9-hexahydroimidazo [1,2-a]pyrido [3,4-e]pyrimidin-5(1H)-one]",activity at DRD2,[6],selectively antagonizes; also recorded: antagonized
same,activity at DRD5,[2],no antagonism; also recorded: but not D1-like (DRD1/5)
same,progression-free survival (PFS),[14],superior progression-free survival (PFS) in H3 K27M patients
same,survival of mice with orthotopic xenografts,[15]; monoagent and in combination with bevacizumab,prolongs the survival
same,effect on xenografts,[15]; temozolomide-resistant high-grade glioma xenografts,shrinks
same,in vitro efficacy profiling,[16],broad anti-cancer efficacy with high sensitivity in human brain cancer cell lines
same,activity at DRD4,[17],weaker potency
same,interactions with the kinome,[18],no significant interactions
same,association rate for DRD2,[19],very slow
same,leukemia xenograft tumor growth,[20],not efficacious
same,viability at 5000 µg/mL,[21],< 25%
same,symptoms,[22]; 125 mg once weekly,complete resolution of their inability to use their left arm and hand
same,radiographic evaluation of tumor,"[22]; 125 mg once weekly, after 6 weeks",stable tumor lesion
same,symptoms,[22]; 500 mg once weekly,near-complete resolution of their facial palsy; also recorded: improvement in facial palsy
same,radiographic evaluation of tumor,"[22]; 500 mg once weekly, after 16 weeks",significant regression; also recorded: shrinkage of lesion
same,tolerability,[22]; once weekly dosing,tolerates the therapy well
same,concentration at 2 h,[23],2600 ng/mL
same,Median OS,[24]; [27],41.6 weeks
same,OS12,[24]; [27],35%
same,regression,"[24]; one patient, 625 mg every three weeks, after 15 months of therapy",92%
same,time on study,[24]; person one,> 10 weeks
same,response,"[24]; person one, H3 K27M, first on-treatment evaluation at 8 weeks",complete disappearance of malignant lesions; also recorded: complete disappearance of tumor lesions
same,time on therapy with durable response,[24]; person two,> 1.5 years
same,response,"[24]; person two, H3.3 K27M mutant, 625 mg once every three weeks",durable objective response with complete regression of thalamic lesions
same,overall tumor size regression,"[24]; person two, H3.3 K27M mutant, 625 mg once every three weeks, after 18 doses",96%
same,serum prolactin,[24]; surrogate marker of target engagement,serum prolactin induction was observed; also recorded: significant induction of serum prolactin
same,GPCR profile,[8],Antagonism of adrenoceptor alpha receptors or other GPCRs was not observed
O=C1C2=C(CCN(Cc3ccccc3)C2)N2CCN=C2N1Cc1ccc(F)c(F)c1 [ONC213],activity at DRD2,[6],inhibitor
same,DRD2/3 potency,[6]; rank against other imipridones,more than ONC201 but less than ONC206
same,activity at DRD3,[25],inhibitor
same,activity at GPR132,[3],agonist
same,GPR132 potency,[3]; rank against other imipridones,less than ONC212
same,activity at GPR91,[26],agonist

# — patent US12102639B2, “Imipridones for gliomas” (Oncoceutics, Inc., priority 2017, dated 2024)
